Source: ChEMBL document CHEMBL1137308 (J Med Chem, 2006)
In brackets after ≈: the same amount, converted by molar mass. Activity calls are given as the source filed them. The calls are words filed in the database; no cut-off is given here.

Legend:
Staphylococcus aureus [1] = test: Antibacterial activity against Staphylococcus aureus SA2552; type: functional
Streptococcus pneumoniae [2] = test: Antibacterial activity against Streptococcus pneumonia SVI SP3; type: functional
Staphylococcus aureus [3] = test: Antibacterial activity against Staphylococcus aureus SA1417; type: functional
Klebsiella pneumoniae [4] = test: Antibacterial activity against Klebsiella pneumonia KP2; type: functional
Staphylococcus aureus [5] = test: Antibacterial activity against Staphylococcus aureus SA2558; type: functional
Staphylococcus aureus [6] = test: Antibacterial activity against ciprofolxacin-resistant Staphylococcus aureus SA2017; type: functional
Escherichia coli [7] = test: Antibacterial activity against Escherichia coli EC1-10; type: functional
Staphylococcus aureus [8] = test: Antibacterial activity against Staphylococcus aureus UC-76 SA-1; type: functional
Pseudomonas aeruginosa = test: Antibacterial activity against Pseudomonas aeruginosa PA7; type: functional
Moraxella catarrhalis = test: Antibacterial activity against Moraxella catarrhalis BC-3531; type: functional
Streptococcus pyogenes [9] = test: Antibacterial activity against Streptococcus pyogenes C203 SP1-1; type: functional
Staphylococcus aureus [10] = test: Antibacterial activity against Staphylococcus aureus SA2554; type: functional
Enterococcus faecalis [11] = test: Antibacterial activity against Enterococcus faecalis […]; type: functional
Streptococcus pneumoniae [12] = test: Antibacterial activity against quinolone-resistant Streptococcus pneumonia SP3763; type: functional
Escherichia coli [13] = test: Antibacterial activity against Escherichia coli EC2026; type: functional
Enterococcus faecium = test: Antibacterial activity against vancomycin-resistant Enterococcus faecium EF4-3489; type: functional
Enterococcus faecalis [14] = test: Antibacterial activity against Enterococcus faecalis EF1-3524; type: functional
Providencia rettgeri = test: Antibacterial activity against Providencia rettgeri PR9; type: functional
Haemophilus influenzae = test: Antibacterial activity against Haemophilus influenzae HI3542; type: functional
Enterococcus faecalis [15] = test: Activity against sc dosed mouse infected with Enterococcus faecalis; type: functional; conditions: read-out: PD50
Streptococcus pyogenes [16] = test: Activity against sc dosed mouse infected with Streptococcus pyogenes; type: functional; conditions: read-out: PD50
Streptococcus pyogenes [17] = test: Antibacterial activity against Streptococcus pyogenes […]; type: functional
Enterococcus faecalis [18] = test: Antibacterial activity against Enterococcus faecalis MGH2 EF1-1; type: functional
DNA gyrase = DNA gyrase (Escherichia coli, UniProt P0AES4+P0AES6); test: Inhibition of Escherichia coli gyrase; type: functional
Klebsiella pneumoniae [19] = test: Antibacterial activity against Klebsiella pneumonia ESBL KP3729; type: functional
Escherichia coli [20] = test: Antibacterial activity against Escherichia coli EC2549; type: functional
Streptococcus pyogenes [21] = test: Activity against po dosed mouse infected with Streptococcus pyogenes; type: functional; conditions: read-out: PD50
Enterococcus faecalis [22] = test: Activity against po dosed mouse infected with Enterococcus faecalis; type: functional; conditions: read-out: PD50
Staphylococcus aureus [23] = test: Antibacterial activity against methicillin-resistant Staphylococcus aureus SA1417; type: functional
[24] = molecular target: T1, DNA gyrase (Escherichia coli) (UniProt P0AES6+P0AES4); test: Displacement of [14C]ciprofloxacin from Escherichia coli gyrase; type: protein-complex assay
Escherichia coli [25] = test: Inhibition of Escherichia coli DNA synthesis; type: functional, organism-based
[26] = molecular target: T1, DNA gyrase (Escherichia coli); test: Ability to inhibit DNA supercoiling activity of Escherichia coli gyrase; type: functional

Row | Structure (SMILES) | MIC (Staphylococcus aureus [1]) [µg/mL] | MIC (Streptococcus pneumoniae [2]) [µg/mL] | MIC (Staphylococcus aureus [3]) [µg/mL] | MIC (Klebsiella pneumoniae [4]) [µg/mL] | MIC (Staphylococcus aureus [5]) [µg/mL] | MIC (Staphylococcus aureus [6]) [µg/mL] | MIC (Escherichia coli [7]) [µg/mL] | MIC (Staphylococcus aureus [8]) [µg/mL] | MIC (Pseudomonas aeruginosa) [µg/mL] | MIC (Moraxella catarrhalis) [µg/mL] | MIC (Streptococcus pyogenes [9]) [µg/mL] | MIC (Staphylococcus aureus [10]) [µg/mL] | MIC (Streptococcus pneumoniae [12]) [µg/mL] | MIC (Enterococcus faecium) [µg/mL] | MIC (Enterococcus faecalis [14]) [µg/mL] | MIC (Providencia rettgeri) [µg/mL] | MIC (Haemophilus influenzae) [µg/mL] | MIC (Enterococcus faecalis [18]) [µg/mL] | MIC (Klebsiella pneumoniae [19]) [µg/mL] | MIC (Staphylococcus aureus [23]) [µg/mL] | also measured
1 | COc1c(N2CC[C@@H]([C@H](C)N)C2)c(F)cc2c(=O)n(N)c(=O)n(C3CC3)c12 | 0.5 (≈ 1.32 µM) | 0.03 (≈ 0.0795 µM) | 0.5 (≈ 1.32 µM) | 8 (≈ 21.2 µM) | 0.5 (≈ 1.32 µM) | 1 (≈ 2.65 µM) | 2 (≈ 5.3 µM) | 0.13 (≈ 0.344 µM) | 8 (≈ 21.2 µM) | 1 (≈ 2.65 µM) | 0.03 (≈ 0.0795 µM) | 0.25 (≈ 0.662 µM) | 0.06 (≈ 0.159 µM) | 1 (≈ 2.65 µM) | 0.25 (≈ 0.662 µM) | 4 (≈ 10.6 µM) | 0.25 (≈ 0.662 µM) | 0.13 (≈ 0.344 µM) | 8 (≈ 21.2 µM) | 0.25 (≈ 0.662 µM) | MIC (Enterococcus faecalis [11]): 0.25 µg/mL (≈ 0.662 µM); MIC (Escherichia coli [13]): 4 µg/mL (≈ 10.6 µM); ED50 (Enterococcus faecalis [15]): 11 mg/kg; ED50 (Streptococcus pyogenes [16]): 1.2 mg/kg; MIC (Streptococcus pyogenes [17]): 0.03 µg/mL (≈ 0.0795 µM); IC50 (DNA gyrase): 600 nM; MIC (Escherichia coli [20]): 0.13 µg/mL (≈ 0.344 µM); ED50 (Streptococcus pyogenes [21]): 3.1 mg/kg; ED50 (Enterococcus faecalis [22]): 38 mg/kg
2 | Cc1c(N2CC[C@@H]([C@H](C)N)C2)c(F)cc2c(=O)n(N)c(=O)n(C3CC3)c12 | 0.25 (≈ 0.692 µM) | 0.015 (≈ 0.0415 µM) | 0.125 (≈ 0.346 µM) | 1 (≈ 2.77 µM) | 0.25 (≈ 0.692 µM) | 0.5 (≈ 1.38 µM) | 1 (≈ 2.77 µM) | 0.06 (≈ 0.166 µM) | 4 (≈ 11.1 µM) | 0.25 (≈ 0.692 µM) | 0.015 (≈ 0.0415 µM) | 0.13 (≈ 0.36 µM) | 0.06 (≈ 0.166 µM) | 1 (≈ 2.77 µM) | 0.25 (≈ 0.692 µM) | 2 (≈ 5.53 µM) | 0.125 (≈ 0.346 µM) | 0.125 (≈ 0.346 µM) | 2 (≈ 5.53 µM) | 0.125 (≈ 0.346 µM) | Activity [24]: Active; Activity (Escherichia coli [25]): Active; MIC (Enterococcus faecalis [11]): 0.06 µg/mL (≈ 0.166 µM); MIC (Escherichia coli [13]): 1 µg/mL (≈ 2.77 µM); ED50 (Enterococcus faecalis [15]): 4.2 mg/kg; Activity [26]: Active; ED50 (Streptococcus pyogenes [16]): 0.27 mg/kg; MIC (Streptococcus pyogenes [17]): 0.015 µg/mL (≈ 0.0415 µM); IC50 (DNA gyrase): 200 nM; MIC (Escherichia coli [20]): 0.03 µg/mL (≈ 0.083 µM); ED50 (Streptococcus pyogenes [21]): 1.4 mg/kg; ED50 (Enterococcus faecalis [22]): 19 mg/kg
3 | O=C(O)c1cn(C2CC2)c2cc(N3CCNCC3)c(F)cc2c1=O [CIPROFLOXACIN] |  | 1 (≈ 3.02 µM) | 0.5 (≈ 1.51 µM) |  | 64 (≈ 193 µM) | > 64 |  | 0.13 (≈ 0.392 µM) | 0.06 (≈ 0.181 µM) | 0.03 (≈ 0.0905 µM) | 0.5 (≈ 1.51 µM) | 2 (≈ 6.04 µM) | 64 (≈ 193 µM) | > 64 | 32 (≈ 96.6 µM) | 0.06 (≈ 0.181 µM) | 0.008 (≈ 0.0241 µM) | 0.5 (≈ 1.51 µM) |  | 0.5 (≈ 1.51 µM) | 
4 | C[C@H]1NCc2cc(-c3ccc4c(=O)c(C(=O)O)cn(C5CC5)c4c3OC(F)F)ccc21 [GARENOXACIN] | 0.03 (≈ 0.0704 µM) | 0.03 (≈ 0.0704 µM) | 0.06 (≈ 0.141 µM) | 0.06 (≈ 0.141 µM) | 2 (≈ 4.69 µM) | 2 (≈ 4.69 µM) | 0.25 (≈ 0.586 µM) | 0.015 (≈ 0.0352 µM) | 1 (≈ 2.35 µM) | 0.03 (≈ 0.0704 µM) | 0.06 (≈ 0.141 µM) | 0.03 (≈ 0.0704 µM) | 1 (≈ 2.35 µM) | 8 (≈ 18.8 µM) | 4 (≈ 9.38 µM) | 0.06 (≈ 0.141 µM) | 0.015 (≈ 0.0352 µM) | 0.125 (≈ 0.293 µM) | 32 (≈ 75 µM) | 0.03 (≈ 0.0704 µM) | MIC (Escherichia coli [13]): 0.03 µg/mL (≈ 0.0704 µM); MIC (Escherichia coli [20]): 0.008 µg/mL (≈ 0.0188 µM)
5 | COc1c(N2CCNC(C)C2)c(F)cc2c(=O)c(C(=O)O)cn(C3CC3)c12 (stereo not drawn) [GATIFLOXACIN] | 0.125 (≈ 0.333 µM) | 0.125 (≈ 0.333 µM) | 0.125 (≈ 0.333 µM) | 0.06 (≈ 0.16 µM) | 4 (≈ 10.7 µM) | 8 (≈ 21.3 µM) | 0.06 (≈ 0.16 µM) | 0.03 (≈ 0.0799 µM) | 0.5 (≈ 1.33 µM) | 0.03 (≈ 0.0799 µM) | 0.5 (≈ 1.33 µM) | 0.125 (≈ 0.333 µM) | 4 (≈ 10.7 µM) | 32 (≈ 85.2 µM) | 16 (≈ 42.6 µM) | 0.5 (≈ 1.33 µM) | 0.015 (≈ 0.04 µM) | 0.5 (≈ 1.33 µM) | 8 (≈ 21.3 µM) | 0.125 (≈ 0.333 µM) | MIC (Escherichia coli [13]): < 0.06 µg/mL; MIC (Escherichia coli [20]): < 0.06 µg/mL
6 | C[C@H]1COc2c(N3CCN(C)CC3)c(F)cc3c(=O)c(C(=O)O)cn1c23.C[C@H]1COc2c(N3CCN(C)CC3)c(F)cc3c(=O)c(C(=O)O)cn1c23.O [LEVOFLOXACIN] | 0.25 |  | 0.25 | 0.03 | 8 | 8 |  | 0.125 | 0.5 | 0.03 | 0.5 | 0.5 |  | 64 | 32 | 0.5 | 0.008 | 1 | 8 | 0.25 | 
